Laboratory results from patent US6180651A, “Diarylmethylidenefuran derivatives, processes for their preparation and their uses in therapeutics” (Bristol-Myers Squibb, priority 1996, dated 2001).

What was measured:
carrageenin oedema = assay: anti-inflammatory activity, carrageenin oedema test; type: in vivo; details: rat, oral; dose which induces 50% decrease in the volume of the oedema; read-out: Anti-inflammatory activity ID50
Procedure: (§1) The anti-inflarnmatory activity of the compounds of the Examples was evaluated by the carrageenin oedema method and the analgesic activity was evaluated by the kaolin arthritis method.
Anti-inflammatory Activity:
The anti-inflammatory activity is evaluated in the rat by the carrageenin oedema test. The product is administered orally at a rate of 2.5 ml/100 g (n=6 animals per dose) 2 h 30 min after oral hyperhydration (2.5 m/100 g); one hour after administration of the product, the oedema is induced by the plantar subcutaneous injection of 2% aqueous carrageenin solution. The results are expressed as the ID50, the dose in mg/kg which induces 50% decrease in the volume of the oedema, calculated by linear regression using the maximum oedema volume obtained for each product tested.

kaolin arthritis = assay: analgesic activity, kaolin arthritis test; type: in vivo; details: rat, oral; dose which induces 50% decrease of the maximum quotation in the control batch; read-out: Analgesic activity DE50
Procedure: as §1
The analgesic activity is evaluated in the rat by the kaolin arthritis test. Thirty minutes after the intra-articular administration of 10% aqueous kaolin suspension, the product is administered orally at a rate of 1 ml/100 g (n=10 animals per dose). The results are expressed as DE50, the dose in mg/kg which induces 50% decrease of the maximum quotation in the control batch, calculated by linear regression.

COX-1 = target: T1, COX-1 (Ovis aries, UniProt P05979); assay: inhibition of COX-1 enzymatic activity (PGE2 by EIA); type: biochemical; details: purified enzyme from ram seminal vesicles; arachidonic acid 6 μM; n=1 to 4 determinations
T1 construct: purified enzyme from ram seminal vesicles; from tissue; host or cells: ram seminal vesicles (purified enzyme)
T1 sequence (P05979 25-600): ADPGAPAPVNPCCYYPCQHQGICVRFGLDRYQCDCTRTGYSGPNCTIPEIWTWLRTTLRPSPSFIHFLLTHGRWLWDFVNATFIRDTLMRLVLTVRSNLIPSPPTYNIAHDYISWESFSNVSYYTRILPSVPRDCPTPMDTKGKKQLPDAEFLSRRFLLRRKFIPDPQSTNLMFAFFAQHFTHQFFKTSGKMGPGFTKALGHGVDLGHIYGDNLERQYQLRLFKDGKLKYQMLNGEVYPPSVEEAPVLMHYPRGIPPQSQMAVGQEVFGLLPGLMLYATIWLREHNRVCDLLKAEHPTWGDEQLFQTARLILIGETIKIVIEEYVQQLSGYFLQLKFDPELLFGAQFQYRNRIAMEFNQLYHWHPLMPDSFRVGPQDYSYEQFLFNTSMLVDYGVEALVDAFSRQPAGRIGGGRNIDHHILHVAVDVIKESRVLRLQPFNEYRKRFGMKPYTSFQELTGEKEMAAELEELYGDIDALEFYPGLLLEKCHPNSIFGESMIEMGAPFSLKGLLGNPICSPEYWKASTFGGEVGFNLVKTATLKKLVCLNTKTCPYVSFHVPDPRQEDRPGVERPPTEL
Procedure: (§2) Inhibition of the COX-1 and COX-2 Enzymatic Activities The test molecule is preincubated for 10 minutes at 25° C. with 2 U of COX-1 (purified enzyme from ram seminal vesicles) or 1 U of COX-2 (purified enzyme from ewe placenta). Arachidonic acid (6 μM for COX-1, 4 μM for COX-2) is added to the reaction medium and incubation is carried out for 5 minutes at 25° C. When incubation has ended, the enzymatic reaction is stopped by the addition of 1 N HCl and the PGE2 produced is determined by EIA. The results are expressed as IC50, the concentration in nM which corresponds to 50% inhibition of the maximal enzymatic activity on the COX-1 and COX-2 (n=1 to 4 determinations).

COX-2 = target: T2, COX-2 (Ovis aries, UniProt P79208); assay: inhibition of COX-2 enzymatic activity (PGE2 by EIA); type: biochemical, ewe; details: for IC50: purified enzyme from ewe placenta, arachidonic acid 4 μM, n=1 to 4 determinations; for Selectivity COX-1/COX-2 ratio: ratio of IC50 COX-1 / IC50 COX-2
T2 construct: purified enzyme from ewe placenta; from tissue; host or cells: ewe placenta (purified enzyme)
T2 sequence (P79208 17-603): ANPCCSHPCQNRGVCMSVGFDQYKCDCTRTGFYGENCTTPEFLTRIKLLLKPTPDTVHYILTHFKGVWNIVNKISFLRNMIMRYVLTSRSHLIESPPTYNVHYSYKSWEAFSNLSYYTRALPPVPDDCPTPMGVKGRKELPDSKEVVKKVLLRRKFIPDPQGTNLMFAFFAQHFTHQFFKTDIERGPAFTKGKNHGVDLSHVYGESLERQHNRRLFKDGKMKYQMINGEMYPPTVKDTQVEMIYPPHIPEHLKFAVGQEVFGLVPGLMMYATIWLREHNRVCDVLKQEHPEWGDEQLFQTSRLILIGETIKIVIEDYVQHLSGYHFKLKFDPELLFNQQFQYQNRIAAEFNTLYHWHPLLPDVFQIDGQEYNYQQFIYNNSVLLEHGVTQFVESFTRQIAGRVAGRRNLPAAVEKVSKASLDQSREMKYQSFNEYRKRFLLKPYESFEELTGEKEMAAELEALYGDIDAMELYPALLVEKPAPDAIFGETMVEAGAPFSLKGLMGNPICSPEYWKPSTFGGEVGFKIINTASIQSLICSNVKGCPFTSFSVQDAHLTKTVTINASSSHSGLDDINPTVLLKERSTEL
Procedure: as §2

| IC50 (COX-1) [nM] | IC50 (COX-2) [nM] | Selectivity COX-1/COX-2 ratio (COX-2) | Compound | ED50 (carrageenin oedema) [mg/kg] | ED50 (kaolin arthritis) [mg/kg] |
| --- | --- | --- | --- | --- | --- |
| > 100000 | 627 | > 159 | CS(=O)(=O)c1ccc(/C(=C2/CCOC2=O)c2cccc(Cl)c2)cc1 [23 (E), (E)-3-[1-(3-chlorophenyl)-1-(4-methanesulphonylphenyl)methyl-idene]-dihydrofuran-2-one] | – | – |
| > 10000 | 18400 | > 0.5 | CS(=O)(=O)c1ccc(/C(=C2\CCOC2=O)c2ccccc2)cc1 [28 (E isomer), (E)-3-[1-Phenyl-1-(4-methanesulphonylphenyl)methylidene]-dihydrofuran-2-one] | 10.1 | 26.1 |
| > 100000 | 780 | > 128 | CC1(C)C/C(=C(/c2ccc(F)cc2)c2ccc(S(C)(=O)=O)cc2)C(=O)O1 [31 (E isomer), (E)-5,5-Dimethyl-3-[1-(4-fluorophenyl)-1-(4-methanesulphonylphenyl)methylidene]dihydrofuran-2-one] | 3.1 | 14.2 |
| > 100000 | 694 | > 144 | CCC1C/C(=C(/c2ccc(F)cc2)c2ccc(S(C)(=O)=O)cc2)C(=O)O1 (stereo not drawn) [34 (E isomer), (E)-5-Ethyl-3-[1-(4-fluorophenyl)-1-(4-methanesulphonylphenyl)methylidene]dihydrofuran-2-one] | – | 38.8 |
| > 100000 | 418 | > 239 | Cc1cccc(/C(=C2/CCOC2=O)c2ccc(S(C)(=O)=O)cc2)c1 [49 (Z isomer), (Z)-3-[1-(3-Methylphenyl)-1-(4-methanesulphonylphenyl)-methylidene]dihydrofuran-2-one] | > 30 | > 30 |
| > 100000 | 458 | > 218 | CS(=O)(=O)c1ccc(/C(=C2\CCOC2=O)c2cccc(Br)c2)cc1 [90 (Z isomer), (Z)-3-[1-(3-bromophenyl)-1-(4-methanesulphonylphenyl)methylidene]-dihydro-furan-2-one] | 17.2 | – |
| 62000 | 166 | 373 | CS(=O)(=O)c1ccc(/C(=C2\CCOC2=O)c2ccc(Br)cc2)cc1 [100 (Z isomer), (Z)-3-[1-(4-bromophenyl)-1-(4-methanesulphonylphenyl)methylidene]-dihydro-furan-2-one] | 3.6 | – |

Second part, the molecule before the results:

| Compound | IC50 (COX-1) [nM] | IC50 (COX-2) [nM] | Selectivity COX-1/COX-2 ratio (COX-2) | ED50 (carrageenin oedema) [mg/kg] | ED50 (kaolin arthritis) [mg/kg] |
| --- | --- | --- | --- | --- | --- |
| CS(=O)(=O)c1ccc(/C(=C2/CCOC2=O)c2ccc(Cl)cc2)cc1 [8 (E isomer), (E)-3-[1-(4-chlorophenyl)-1-(4-methanesulphonylphenyl)methylidene]dihydrofuran-2-one] | – | – | – | > 30 | – |
| CS(=O)(=O)c1ccc(/C(=C2\CCOC2=O)c2cccc(F)c2)cc1 [13 (Z isomer), (Z)-3-[1-(3-fluorophenyl)-1-(4-methanesulphonylphenyl)methylidene]dihydrofuran-2-one] | > 100000 | 610 | > 164 | 3.9 | 14.1 |
| CS(=O)(=O)c1ccc(/C(=C2\CCOC2=O)c2ccc(Cl)c(Cl)c2)cc1 [18 (Z isomer), (Z)-3-[1-(3,4-Dichlorophenyl)-1-(4-methanesulphonylphenyl)-methylidene]dihydrofuran-2-one] | 73200 | 132 ± 32 | 555 | > 30 | 6.1 |
| CS(=O)(=O)c1ccc(/C(=C2\CCOC2=O)c2cccc(Cl)c2)cc1 [23 (Z isomer), (Z)-3-[1-(3-Chlorophenyl)-1-(4-methanesulphonylphenyl)-methylidene]dihydrofuran-2-one] | – | – | – | 9.3 | 7.2 |
| CS(=O)(=O)c1ccc(/C(=C2\CCOC2=O)c2ccc(F)cc2F)cc1 [75 (Z isomer), (Z)-3-[1-(2,4-difluorophenyl)-1-(4-methanesulphonylphenyl)methylidene]-dihydro-furan-2-one] | – | – | – | 4.6 | – |
